The test system of one series is T47D cells. Briefly: Cytotoxicity by MTT assay against T47D cells. To be noted: read-out: Cytotoxicity against T47D cells IC50 (nM) Hypoxic; T47D cells, hypoxic conditions, MTT assay. The source says:
(§1) All experiments were independently performed at least three times.

Series [1] in a line: Cytotoxicity by MTT assay against T47D cells. As to conditions: human.
Text: as §1

Series [2] deals with T1, HIF-1 (Homo sapiens, UniProt Q16665). Briefly: HIF-1-mediated reporter gene assay in T47D cells (HRE-luciferase, hypoxia-induced HIF-1 activation). The class given is cell-based. The arrangement: endogenous in cells; host or cells: T47D cells (American Type Culture Collection). The procedure: The HIF-1-mediated reporter gene assay in T47D cells was performed according to a previous protocol with minor modification (Parhira, S. et al., Sci. Rep., 2014, 4, 4748). T47D cells (American Type Culture Collection) were cultured in DMEM medium (Invitrogen), supplemented with 10% (v/v) fetal serum (FBS) (Invitrogen), 100 U/mL penicillin, and 100 μg/mL streptomycin (Invitrogen) in a humidified atmosphere (5% CO2 and 95% air) at 37° C. Cells (5×10^6) were co-transfected with the HRE-luciferase (Addgene) and Renilla plasmids using Lipofectamine 2000 (Invitrogen) according to the manufacturer's protocol. The transfected cells were seeded in 96-well plates with a density of 5×10^4/well and cultured in DMEM with 10% FBS overnight. After addition of the test compounds with different concentrations, the cells were incubated for 1 h, and then exposed to hypoxic (2% O2/5% CO2/93% N2) or normoxic (5% CO2/95% air) conditions at 37° C. for 20 h. Then the cells were lysed, and luciferase assay was performed using a Dual-Luciferase® reporter assay (Promega) kit according to the instructions of the manufacturer. Luciferase activities of both HRE and Renilla were determined by a multimode reader (Infinite 200 PRO, Teacan). HIF-1 transcriptional activity was shown by the ratio of firefly/Renilla luciferase activity. IC50 values were determined from the dose-response curves using Prism software. The data were repeated by three independent experiments.

For series [3], the target named is T1, HIF-1. As to conditions: literature value (Hodges et al. 2004; Cai et al. 2006); read-out: HIF-1 inhibition IC50 (literature); cited from earlier work.
The mark [4] stands for this setting: T47D cells, Cytotoxicity against T47D cells IC50 (nM) Hypoxic, hypoxic conditions, MTT assay.
Setting [5] is: T47D cells, Cytotoxicity against T47D cells IC50 (nM) Normoxic, normoxic conditions, MTT assay.
Setting [6] is: T47D human breast tumor cells, HIF-1 activation induced by hypoxia (2% O2, 20 h), means±SD, read-out: HIF-1 activation inhibitory activity IC50 (nM) T47D.
[7] abbreviates: Cytotoxicity against T47D cells IC50 (nM) Hypoxic, T47D cells, hypoxic conditions, MTT assay.
The mark [8] stands for this setting: Cytotoxicity against T47D cells IC50 (nM) Normoxic, T47D cells, normoxic conditions, MTT assay.

Where two headings read alike, the source gives them in different places. A value given as a limit tells only on which side of the number the result lay.

T1 sequence (Q16665 whole entry): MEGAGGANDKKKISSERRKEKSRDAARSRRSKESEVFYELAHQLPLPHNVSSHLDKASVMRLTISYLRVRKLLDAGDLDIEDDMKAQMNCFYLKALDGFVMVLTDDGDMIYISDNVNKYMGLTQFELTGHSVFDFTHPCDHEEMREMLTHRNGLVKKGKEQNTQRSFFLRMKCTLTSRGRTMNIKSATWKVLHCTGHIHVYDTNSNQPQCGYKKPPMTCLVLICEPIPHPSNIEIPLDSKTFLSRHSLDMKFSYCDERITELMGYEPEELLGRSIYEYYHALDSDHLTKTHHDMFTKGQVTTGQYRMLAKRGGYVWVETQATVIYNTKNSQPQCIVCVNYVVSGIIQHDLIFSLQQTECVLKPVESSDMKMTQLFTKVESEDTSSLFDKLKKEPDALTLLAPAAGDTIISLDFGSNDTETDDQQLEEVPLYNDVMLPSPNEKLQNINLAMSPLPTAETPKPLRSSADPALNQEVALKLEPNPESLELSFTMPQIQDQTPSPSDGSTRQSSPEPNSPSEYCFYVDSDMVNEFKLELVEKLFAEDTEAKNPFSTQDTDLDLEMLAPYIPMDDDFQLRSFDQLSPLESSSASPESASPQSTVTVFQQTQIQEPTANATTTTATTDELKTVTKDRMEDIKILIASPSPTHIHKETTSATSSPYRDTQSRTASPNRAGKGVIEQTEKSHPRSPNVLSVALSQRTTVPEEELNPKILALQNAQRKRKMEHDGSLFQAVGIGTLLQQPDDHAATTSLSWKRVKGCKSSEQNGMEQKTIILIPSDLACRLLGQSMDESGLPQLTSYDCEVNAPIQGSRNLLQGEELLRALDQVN

Consider `COc1ccc2c3c(c4cc(OC)c(OC)cc4c2c1)C[N+]1([O-])CCC[C@@H]1[C@@H]3O` (stereo partly shown) [compound 17, tylophorinine N-oxide], for which the IC50 with T47D cells was > 100 nM; in series [1], > 100 nM; on HIF-1 [2], 3 nM.

Consider `COc1cc2c3c(c4ccc(O)cc4c2cc1O)[C@@H](O)[C@@H]1CCC[N@@+]1([O-])C3` [compound 6, 10R, 14R-3-O-demethyl tylophorinidine N-oxide], for which the IC50 in series [1] (setting [4]) was > 200 nM; in series [1] (setting [5]) it was > 200 nM; at HIF-1 [2] (setting [6]), 50 ± 35 nM.

For the compound `COc1cc2c3c(c4ccc(O)cc4c2cc1OC)[C@H](O)[C@@H]1CCCN1C3` [compound 15, trans-(+)-3,14a-dihydroxy-6,7-dimethoxyphenanthroindolizidine], the IC50 in series [1] (setting [4]) is > 250 nM; in series [1] (setting [5]), > 250 nM; on HIF-1 [2] (setting [6]), 6 ± 3 nM.

As for `COc1ccc2c3c(c4cc(OC)c(O)cc4c2c1)CN1C(=O)CC[C@H]1[C@H]3O` [compound 1, 11-keto-tylophorinidine], the IC50 at HIF-1 [2] was > 10000 nM.

Turning to `COc1cc2c3c(c4cc(OC)c(OC)cc4c2cc1OC)C[N@+]1([O-])CCC[C@H]1C3` [compound 11, 10R, 13aS-tylophorine N-oxide], the IC50 was > 2000 nM in series [1] (setting [4]), > 2000 nM in series [1] (setting [5]) and 930 nM at HIF-1 [2] (setting [6]).

For the compound `COc1ccc2c3c(c4cc(OC)c(OC)cc4c2c1)CN1CCC[C@H]1C3` [compound 20, deoxytylophorinine], the results for the IC50 (in series [1] (setting [7]); in series [1] (setting [8]); against HIF-1 [2]) were > 15000 nM, > 600 nM and 115 nM, respectively. The “times more potent than its dehydrogenated product (22)” value on HIF-1 [2] (compound (20) versus (22), HIF-1 IC50) is reported as “at least 8 times”.

On to `COc1ccc2c3c(c4cc(OC)c(OC)cc4c2c1)C[N@+]1([O-])CCC[C@H]1C3` [compound 12, 10R-deoxytylophorinine N-oxide], for which the figures for the IC50 (in series [1] (setting [7]); in series [1] (setting [8]); against HIF-1 [2]) were > 2000 nM, > 1000 nM and 254 nM, respectively.

Regarding `COc1ccc2c(c1)c1cc(OC)c(OC)cc1c1c[n+]3c(cc21)CCC3` [compound 22, tylophoridicine D], the IC50 on HIF-1 [2] was > 10000 nM.

`COc1cc2c3c(c4ccc(O)cc4c2cc1O)[C@H](O)[C@@H]1CCCN1C3` [compound 13, 3-O-demethyl tylophorinidine]: the IC50 in series [1] (setting [4]) was > 250 nM; in series [1] (setting [5]) it was > 250 nM; against HIF-1 [2], 10 nM.

On to `COc1cc2c3c(c4cc(OC)c(OC)cc4c2cc1OC)[C@H](O)[C@@H]1CCC[N@@+]1([O-])C3` [compound 10, 10R, 13aS, 14S-14-hydroxytylophorine N-oxide], for which the values for the IC50 (in series [1] (setting [4]); in series [1] (setting [5]); on HIF-1 [2] (setting [6])) were > 2000 nM, > 2000 nM and 441 nM, respectively.

`COc1cc2c(cc1O)c1c(c3cc(OC)c(OC)cc32)CN2CCC[C@@H]2[C@@H]1O` [compound 9, 13aR-2-hydroxyl tylophorinine]: the IC50 is > 2000 nM in series [1] (setting [7]), > 2000 nM in series [1] (setting [8]) and 489 ± 108 nM at HIF-1 [2].

Take `COc1ccc2c3c(c4cc(OC)c(OC)cc4c2c1)CN1CCC[C@H]1[C@H]3O` [compound 21, O-methyl-tylophorindine]: the IC50 in series [1] (setting [7]) is > 12500 nM; in series [1] (setting [8]), > 500 nM; at HIF-1 [2], 13 nM.

Regarding `COc1ccc2c3c(c4cc(OC)c(O)cc4c2c1)C[N+]1([O-])CCC[C@H]1[C@H]3O` (stereo partly shown) [compound 16, tylophoridicine C], the IC50 with T47D cells was > 100 nM; in series [1] it was > 100 nM; on HIF-1 [2], 25 nM.

On to `COc1ccc2c3c(c4cc(OC)c(OC)cc4c2c1)CN1CCC[C@H]1[C@@H]3O` [compound 18, tylophorinine], for which the IC50 in series [1] (setting [7]) was > 500 nM; in series [1] (setting [8]), > 500 nM; against HIF-1 [2], 19 nM.

Turning to `COc1cc2c3c(c4cc(O)c(OC)cc4c2cc1O)C(O)C1CCCN1C3` (stereo not shown) [compound 5, 2-hydroxyl tylophorinidine], the 50% inhibitory concentration (IC50) in series [1] (setting [4]) is > 250 nM; in series [1] (setting [5]) it was > 250 nM; at HIF-1 [2], 10 nM.

As to `COc1ccc([C@@H](O)[C@@H](C)Oc2ccc([C@H]3O[C@H](c4ccc(O[C@H](C)[C@H](O)c5ccc6c(c5)OCO6)c(OC)c4)[C@H](C)[C@H]3C)cc2OC)cc1OC` [Manassantin B], the IC50 on HIF-1 [3] was 0.003 µM.

For `COc1ccc2c3c(c4cc(OC)c(O)cc4c2c1)CN1CCC[C@H]1[C@H]3O` [compound 14, tylophorinidine], the IC50 was > 100 nM in series [1] (setting [4]), > 10 nM in series [1] (setting [5]) and 4 nM at HIF-1 [2].

In the case of `COc1cc2c(cc1O)c1c(c3cc(OC)c(OC)cc32)C[N@+]2([O-])CCC[C@H]2[C@@H]1O` [compound 8, 10R-2-hydroxyl tylophorinine N-oxide], the figures for the IC50 (in series [1] (setting [4]); in series [1] (setting [5]); against HIF-1 [2]) were > 1000 nM, > 1000 nM and 170 ± 106 nM, respectively.

In the case of `COc1cc2c3c(c4cc(O)c(OC)cc4c2cc1O)CC1CCCN1C3` (stereo not shown) [compound 4, 2-hydroxyl deoxytylophorinidine], the IC50 in series [1] (setting [7]) was > 500 nM; in series [1] (setting [8]), > 500 nM; at HIF-1 [2], 19 ± 2 nM.

In the case of `COc1ccc2c3c(c4cc(OC)c(OC)cc4c2c1)CN1O[C@@H](CC(C)=O)CC[C@H]1[C@H]3O` (single isomer, unassigned) [compound 3, 12S, 14aS, 15S-11-oxa-12-(2-oxopropyl)-hydroxyboehmeriasin A], the IC50 in series [1] (setting [4]) is > 20000 nM; in series [1] (setting [5]), > 10000 nM; on HIF-1 [2] (setting [6]), 2660 ± 1810 nM.

As to `COc1cc2c3c(c4cc(OC)c(OC)cc4c2cc1OC)CN1CCC[C@H]1C3` [compound 19, 13aS-tylophorine], the IC50 in series [1] (setting [7]) was > 2000 nM; in series [1] (setting [8]) it was > 1000 nM; against HIF-1 [2] it was 438 nM.

Take `COc1cc2c3c(c4cc(O)c(OC)cc4c2cc1O)[C@@H](O)[C@H]1CCC[N@+]1([O-])C3` [compound 7, 10S, 13aR, 14R-2-hydroxyl tylophorinidine N-oxide]: the IC50 in series [1] (setting [4]) was > 1000 nM; in series [1] (setting [5]), > 1000 nM; on HIF-1 [2] (setting [6]), 37 ± 8 nM.

The values above are taken from US9782401B1, “Method of isolating phenanthroindolizidine alkaloids from Tylophora atrofolliculata with HIF-1 inhibitory activity, compositions comprising them and their use” (priority 2016, dated 2017).
